Source: patent US20150320706A1, “FORMULATIONS AND METHODS OF TREATING ALZHEIMER'S DISEASE AND OTHER PROTEINOPATHIES BY COMBINATION THERAPY” (CHIESI FARMACEUTICI S.P.A., priority 2014, published 2015)
Entries after “also recorded” stand apart in the source; their conditions may differ.

Tests used:
[1] = tested on: MCI (mild cognitively impaired) patients; experiment: Cognitive tests in open label extension study of CHF 5074 in MCI patients; assay type: in vivo, human
Procedure: (§1) In Example 1, the safety and tolerability and cognitive effects of CHF 5074 was analyzed after prolonged treatment in MCI (mild cognitively impaired) patients.
(§2) Methods: At the end of a 14-week double-blind, placebo-controlled study in 96 MCI patients evaluating three titrated dose regimens of CHF 5074 (200, 400 and 600 mg/day), patients were given the option to enter a 76-week open label extension study. Patients received CHF 5074 at the dose equal to that of their originally assigned double-blind study cohort. Patients were monitored for vital signs, cardiac activity, neuropsychological performance and safety laboratory parameters.

[2] = tested on: MCI (mild cognitively impaired) patients; experiment: Safety and tolerability after prolonged treatment in MCI patients; assay type: in vivo, human
Procedure: as §1, §2

sCD40L and TNF-α = experiment: Neuroinflammation biomarkers in cerebrospinal fluid of MCI patients; assay type: in vivo, human; settings: MCI patients, 200, 400 and 600 mg/day
Procedure: as §2

[3] = tested on: TNF-α and soluble CD 40 ligand (sCD40L); settings: healthy subjects and individuals with MCI; cited from earlier work
[4] = tested on: human APP transgenic mice models of AD; settings: transgenic mouse models of AD; cited from earlier work
microglia = settings: response to an Aβ42 stimulus; cited from earlier work
Aβ42 = settings: in vitro; cited from earlier work
Notch = settings: cited from earlier work
[5] = in vivo, cited from earlier work
[6] = tested on: cognitively normal elderly subjects; settings: cited from earlier work
[7] = tested on: patients with mild cognitive impairment (MCI); settings: cited from earlier work
β-amyloid = settings: cited from earlier work
[8] = APOE4 non-carriers, Study Week 64

Sequence of β-amyloid (P05067 672-711 limits assumed): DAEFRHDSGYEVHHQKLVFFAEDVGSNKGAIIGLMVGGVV

## O=C(O)C1(c2ccc(-c3ccc(Cl)c(Cl)c3)c(F)c2)CC1 [CHF 5074, 1-(3′,4′-dichloro-2-fluorobiphenyl-4-yl)cyclopropanecarboxylic acid]
[1]; 200 mg/day and 400 mg/day compared to 600 mg/day (FIG. 1)
  verbal memory, week 88 change from baseline, comparison of doses: surprisingly superior
[1]; 200 mg/day and 400 mg/day doses (FIG. 8)
  verbal memory at week 88 (number of words): dose-dependent improvement
[1]; APOE4 carriers, Immediate Word Recall and Trail Making Test-A, Study Week 64
  improvements as share of Baseline scores: 25-38%
[1]; APOE4 carriers, Study Week 64, p=0.012 vs non-carriers
  Immediate Word Recall, improvement compared to Baseline: +5.4±1.2 words
[1]; APOE4 carriers, Study Week 64, p=0.034 vs non-carriers
  Trail Making Test-A, improvement compared to Baseline: -12.4 ± 2.8 s
[1]; [8]
  Immediate Word Recall, improvement compared to Baseline: +1.4±0.9 words
  Trail Making Test-A, improvement compared to Baseline: -5.6 ± 3.3 s
[1]; interim analysis, 32 patients reaching Study Week 64, p<0.001
  Digit Symbol Substitution Test, improvement compared to Baseline: +4.8±1.1 matches
[1]; interim analysis, 32 patients reaching Study Week 64, p=0.001
  Immediate Word Recall, improvement compared to Baseline: +2.9±0.8 words
[1]; interim analysis, 32 patients reaching Study Week 64, p=0.002
  Trail Making Test-A, improvement compared to Baseline: -8.1 ± 2.4 s
[1]; interim analysis, 32 patients reaching Study Week 64, p=0.003
  Delayed Word Recall, improvement compared to Baseline: +1.3±0.4 words
[1]; interim analysis, 32 patients reaching Study Week 64, p=0.004
  Trail Making Test-B, improvement compared to Baseline: -14.5 ± 4.6 s
[2]; 200 mg/day
  diarrhea, patients reporting: 1.4%
[2]; 400 mg/day
  diarrhea, patients reporting: 6.3%
[2]; 400 mg/day group, at Study Week 40 (pneumonia)
  drop-outs for adverse events: one
[2]; 600 mg/day
  diarrhea, patients reporting: 16.0%
[2]; 600 mg/day group, at Study Week 40 (serum creatinine elevation and worsening of cognitive function)
  drop-outs for adverse events: two
[2]; MCI patients
  safety profile: acceptable safety profile
[2]; prolonged treatment at doses up to and including 400 mg/day
  tolerability: well tolerated
sCD40L and TNF-α
  neuroinflammation biomarkers (CSF sCD40L and TNF-α): dose-dependently lowered
[3]
  CSF biomarkers of neuroinflammation, TNF-α and sCD40L: lowers, in a dose-dependent fashion
[4]
  brain plaque deposition: prevent brain plaque deposition; also recorded: inhibit brain plaque deposition
  memory deficits: attenuate memory deficits; also recorded: attenuate or reverse associated memory deficits
microglia
  M1 inflammatory activity of microglia: blunting or inhibiting M1 inflammatory activity
  M2 phagocytic responses of microglia: stimulating M2 phagocytic responses
Aβ42
  Aβ42 inhibitory activity: selective Aβ42 inhibitory activity
Notch
  effects on Notch processing: lack of effects on Notch processing
[5]; po
  oral absorption: good oral absorption
[5]
  brain penetration: satisfactory brain penetration
  half-life: long half-life

## COc1ccc2cc([C@H](C)C(=O)O)ccc2c1 [naproxen]
[6]; 4-year follow-up assessment
  protection from the onset of AD compared to placebo: 67%
[6]; after two years of treatment
  incidence of dementia: neither drug reduced the incidence of dementia

## CS(=O)(=O)c1ccc(C2=C(c3ccccc3)C(=O)OC2)cc1 [rofecoxib]
[7]
  outcome of secondary prevention study: negative

## MABT5102A: humanized monoclonal antibody against human Aβ1-40 and Aβ1-42 with an IgG4 backbone which reduces effector function
β-amyloid
  binding to β-amyloid species: binds to soluble, oligomeric and fibrillar β-amyloid deposits
